Source: PubChem BioAssay AID1963430 (Molecular Pharmacology Branch, DTP, NCI, 2024)

Tested on: 521955-158-R2-J5-PDC complex spheroid growth, % test/control
Assay: Anticancer human tumor 521955-158-R2-J5-PDC patient-derived pancreatic carcinoma cell line growth inhibition [Asc]
Details: for IC50: curve of first compound; for viability, T/C: stronger effect = lower value
Method in brief: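 Stromal components (HUVEC and hMSC) are co-assembled with the cancer cells into multicellular spheroids. Drugs are then added singly or paired, at concentrations falling by half-log increments from a clinically achievable maximum, capped at 10 microM without known Cmax.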

[1] = second compound 0.1 µM, first compound 0.0316 µM
[2] = second compound 0.1 µM, first compound 0.1 µM
[3] = second compound 0.316 µM, first compound 0.0316 µM
[4] = second compound 0.316 µM, first compound 0.1 µM
[5] = second compound 1 µM, first compound 0.0316 µM
[6] = second compound 1 µM, first compound 0.1 µM
[7] = second compound 3.16 µM, first compound 0.0316 µM
[8] = second compound 3.16 µM, first compound 0.1 µM
[9] = second compound 10 µM, first compound 0.0316 µM
[10] = second compound 10 µM, first compound 0.1 µM
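Note: spheroids exposed to agents for 7 days before readout.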
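Throughout, for viability, T/C: 100% = DMSO vehicle control viability.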

Cc1nc(N2CCC3(CC2)COC(C)C3N)c(CO)nc1Sc1ccnc(N)c1Cl (stereo not given) + Cc1c(S(C)(=O)=O)c(-c2cc(F)cc(N3CCN(c4ccc(NS(=O)(=O)c5ccc(NC(CCN6CCC(C(=O)OCCCP(=O)(O)O)CC6)CSc6ccccc6)c(S(=O)(=O)C(F)(F)F)c5)cc4)CC3)c2)c(-c2ccc(Cl)cc2)n1C(C)C
IC50 (second compound 0.1 µM): 60.8 nM
IC50 (second compound 0.316 µM): 57.7 nM
IC50 (second compound 1 µM): 142 nM
IC50 (second compound 3.16 µM): 392 nM
IC50 (second compound 10 µM): > 3000 nM
viability, T/C (second compound 0.1 µM, first compound 0.00949 µM): 52.9%
viability, T/C (second compound 0.1 µM, first compound 0.03 µM): 55.8%
viability, T/C (second compound 0.1 µM, first compound 0.0949 µM): 45.8%
viability, T/C (second compound 0.1 µM, first compound 0.3 µM): 43.2%
viability, T/C (second compound 0.1 µM, first compound 0.949 µM): 34.9%
viability, T/C (second compound 0.1 µM, first compound 3 µM): 36.9%
viability, T/C (second compound 0.316 µM, first compound 0.00949 µM): 63.6%
viability, T/C (second compound 0.316 µM, first compound 0.03 µM): 65.8%
viability, T/C (second compound 0.316 µM, first compound 0.0949 µM): 38.9%
viability, T/C (second compound 0.316 µM, first compound 0.3 µM): 32.9%
viability, T/C (second compound 0.316 µM, first compound 0.949 µM): 30.4%
viability, T/C (second compound 0.316 µM, first compound 3 µM): 30.5%
viability, T/C (second compound 1 µM, first compound 0.00949 µM): 64.6%
viability, T/C (second compound 1 µM, first compound 0.03 µM): 69.4%
viability, T/C (second compound 1 µM, first compound 0.0949 µM): 48.2%
viability, T/C (second compound 1 µM, first compound 0.3 µM): 39.4%
viability, T/C (second compound 1 µM, first compound 0.949 µM): 44.4%
viability, T/C (second compound 1 µM, first compound 3 µM): 29.4%
viability, T/C (second compound 3.16 µM, first compound 0.00949 µM): 75.9%
viability, T/C (second compound 3.16 µM, first compound 0.03 µM): 64.7%
viability, T/C (second compound 3.16 µM, first compound 0.0949 µM): 61.2%
viability, T/C (second compound 3.16 µM, first compound 0.3 µM): 50.3%
viability, T/C (second compound 3.16 µM, first compound 0.949 µM): 43%
viability, T/C (second compound 3.16 µM, first compound 3 µM): 48.9%
viability, T/C (second compound 10 µM, first compound 0.00949 µM): 230%
viability, T/C (second compound 10 µM, first compound 0.03 µM): 221%
viability, T/C (second compound 10 µM, first compound 0.0949 µM): 179%
viability, T/C (second compound 10 µM, first compound 0.3 µM): 190%
viability, T/C (second compound 10 µM, first compound 0.949 µM): 179%
viability, T/C (second compound 10 µM, first compound 3 µM): 134%

NC1CCC(NC2CC2c2ccccc2)CC1 (stereo not given) + Cc1c(S(C)(=O)=O)c(-c2cc(F)cc(N3CCN(c4ccc(NS(=O)(=O)c5ccc(NC(CCN6CCC(C(=O)OCCCP(=O)(O)O)CC6)CSc6ccccc6)c(S(=O)(=O)C(F)(F)F)c5)cc4)CC3)c2)c(-c2ccc(Cl)cc2)n1C(C)C
IC50 (second compound 0.1 µM): 2.46 nM
IC50 (second compound 0.316 µM): < 0.316 nM
IC50 (second compound 1 µM): < 0.316 nM
IC50 (second compound 3.16 µM): < 0.316 nM
IC50 (second compound 10 µM): 22.1 nM
viability, T/C (second compound 0.1 µM, first compound 0.000316 µM): 58%
viability, T/C (second compound 0.1 µM, first compound 0.001 µM): 46.2%
viability, T/C (second compound 0.1 µM, first compound 0.00316 µM): 56.8%
viability, T/C (second compound 0.1 µM, first compound 0.01 µM): 48.5%
viability, T/C [1]: 37.8%
viability, T/C [2]: 48.4%
viability, T/C (second compound 0.316 µM, first compound 0.000316 µM): 40.8%
viability, T/C (second compound 0.316 µM, first compound 0.001 µM): 36.3%
viability, T/C (second compound 0.316 µM, first compound 0.00316 µM): 47.8%
viability, T/C (second compound 0.316 µM, first compound 0.01 µM): 38.4%
viability, T/C [3]: 46%
viability, T/C [4]: 49%
viability, T/C (second compound 1 µM, first compound 0.000316 µM): 27.9%
viability, T/C (second compound 1 µM, first compound 0.001 µM): 33.9%
viability, T/C (second compound 1 µM, first compound 0.00316 µM): 34.6%
viability, T/C (second compound 1 µM, first compound 0.01 µM): 34.8%
viability, T/C [5]: 39.7%
viability, T/C [6]: 34.6%
viability, T/C (second compound 3.16 µM, first compound 0.000316 µM): 41.6%
viability, T/C (second compound 3.16 µM, first compound 0.001 µM): 32.8%
viability, T/C (second compound 3.16 µM, first compound 0.00316 µM): 25.4%
viability, T/C (second compound 3.16 µM, first compound 0.01 µM): 26.5%
viability, T/C [7]: 30.7%
viability, T/C [8]: 33.9%
viability, T/C (second compound 10 µM, first compound 0.000316 µM): 58%
viability, T/C (second compound 10 µM, first compound 0.001 µM): 48.3%
viability, T/C (second compound 10 µM, first compound 0.00316 µM): 31.8%
viability, T/C (second compound 10 µM, first compound 0.01 µM): 71.6%
viability, T/C [9]: 44.7%
viability, T/C [10]: 39.1%

C#Cc1c(F)ccc2cc(O)cc(-c3ncc4c(N5CC6CCC(C5)N6)nc(OCC56CCCN5CC(F)C6)nc4c3F)c12 (stereo not given) + Cc1c(S(C)(=O)=O)c(-c2cc(F)cc(N3CCN(c4ccc(NS(=O)(=O)c5ccc(NC(CCN6CCC(C(=O)OCCCP(=O)(O)O)CC6)CSc6ccccc6)c(S(=O)(=O)C(F)(F)F)c5)cc4)CC3)c2)c(-c2ccc(Cl)cc2)n1C(C)C
IC50 (second compound 0.1 µM): < 31.6 nM
IC50 (second compound 0.316 µM): < 31.6 nM
IC50 (second compound 1 µM): < 31.6 nM
IC50 (second compound 3.16 µM): < 31.6 nM
IC50 (second compound 10 µM): > 10000 nM
viability, T/C [1]: 44.7%
viability, T/C [2]: 30.4%
viability, T/C (second compound 0.1 µM, first compound 0.316 µM): 38.7%
viability, T/C (second compound 0.1 µM, first compound 1 µM): 33.9%
viability, T/C (second compound 0.1 µM, first compound 3.16 µM): 38.5%
viability, T/C (second compound 0.1 µM, first compound 10 µM): 34%
viability, T/C [3]: 43.6%
viability, T/C [4]: 27.9%
viability, T/C (second compound 0.316 µM, first compound 0.316 µM): 33.3%
viability, T/C (second compound 0.316 µM, first compound 1 µM): 32.1%
viability, T/C (second compound 0.316 µM, first compound 3.16 µM): 32.5%
viability, T/C (second compound 0.316 µM, first compound 10 µM): 34.4%
viability, T/C [5]: 31.3%
viability, T/C [6]: 38.4%
viability, T/C (second compound 1 µM, first compound 0.316 µM): 39.3%
viability, T/C (second compound 1 µM, first compound 1 µM): 31.8%
viability, T/C (second compound 1 µM, first compound 3.16 µM): 28.8%
viability, T/C (second compound 1 µM, first compound 10 µM): 29.4%
viability, T/C [7]: 42.2%
viability, T/C [8]: 41.3%
viability, T/C (second compound 3.16 µM, first compound 0.316 µM): 34.7%
viability, T/C (second compound 3.16 µM, first compound 1 µM): 34.8%
viability, T/C (second compound 3.16 µM, first compound 3.16 µM): 35.9%
viability, T/C (second compound 3.16 µM, first compound 10 µM): 44.7%
viability, T/C [9]: 174%
viability, T/C [10]: 152%
viability, T/C (second compound 10 µM, first compound 0.316 µM): 155%
viability, T/C (second compound 10 µM, first compound 1 µM): 152%
viability, T/C (second compound 10 µM, first compound 3.16 µM): 113%
viability, T/C (second compound 10 µM, first compound 10 µM): 79.6%
